Results reported in paper PMC11240139, “Exploring the antitumor potential of novel quinoline derivatives via tubulin polymerization inhibition in breast cancer; design, synthesis and molecular docking” (RSC Advances, 2024).

Legend:
HT29 (colon cancer) = test: NCI-60 SRB cytotoxicity screen; type: cell-based; details: Homo sapiens, HT-29; HT29, single dose 10 μM; read-out: growth inhibition (GI%)
UACC-62 (melanoma) = test: NCI-60 SRB cytotoxicity screen; type: cell-based; details: Homo sapiens; UACC-62, single dose 10 μM; read-out: growth inhibition (GI%)
[1] = system: NCI/ADR-RES (ovarian cancer); test: NCI-60 SRB cytotoxicity screen; type: cell-based; details: Homo sapiens, single dose 10 μM, read-out: growth inhibition (GI%)
[2] = system: A549/ATCC (non-small cell lung cancer); test: NCI-60 SRB cytotoxicity screen; type: cell-based; details: Homo sapiens, single dose 10 μM, read-out: growth inhibition (GI%)
PC-3 (prostate cancer) = test: NCI-60 SRB cytotoxicity screen; type: cell-based; details: PC-3, single dose 10 μM; read-out: growth inhibition (GI%)
SF-295 (CNS cancer) = test: NCI-60 SRB cytotoxicity screen; type: cell-based; details: Homo sapiens; SF-295, single dose 10 μM; read-out: growth inhibition (GI%)
K-562 (leukemia) = test: NCI-60 SRB cytotoxicity screen; type: cell-based; details: Homo sapiens; K-652 [sic], single dose 10 μM; read-out: growth inhibition (GI%)
CCRF-CEM (leukemia) = test: NCI-60 SRB cytotoxicity screen; type: cell-based; details: Homo sapiens, single dose 10 μM, read-out: growth inhibition (GI%)
UO-31 (renal cancer) = test: NCI-60 SRB cytotoxicity screen; type: cell-based; details: Homo sapiens; UO-31, single dose 10 μM; read-out: growth inhibition (GI%)
T-47D (breast cancer) = test: NCI-60 SRB cytotoxicity screen; type: cell-based; details: Homo sapiens, T47D, single dose 10 μM, read-out: growth inhibition (GI%)
[3] = system: EKVX (non-small cell lung cancer); test: NCI-60 SRB cytotoxicity screen; type: cell-based; details: Homo sapiens, single dose 10 μM, read-out: growth inhibition (GI%)
MALME-3M (melanoma) = test: NCI-60 SRB cytotoxicity screen; type: cell-based; details: Homo sapiens, single dose 10 μM, read-out: growth inhibition (GI%)
SK-MEL-28 (melanoma) = test: NCI-60 SRB cytotoxicity screen; type: cell-based; details: Homo sapiens; SK-MEL-28, single dose 10 μM; read-out: growth inhibition (GI%)
MOLT-4 (leukemia) = test: NCI-60 SRB cytotoxicity screen; type: cell-based; details: Homo sapiens; MOLT-4, single dose 10 μM; read-out: growth inhibition (GI%)
[4] = system: NCI-H23 (non-small cell lung cancer); test: NCI-60 SRB cytotoxicity screen; type: cell-based; details: Homo sapiens; NCI-H23, single dose 10 μM; read-out: growth inhibition (GI%)
SF-539 (CNS cancer) = test: NCI-60 SRB cytotoxicity screen; type: cell-based; details: Homo sapiens; SF-539, single dose 10 μM; read-out: growth inhibition (GI%)
HCT-15 (colon cancer) = test: NCI-60 SRB cytotoxicity screen; type: cell-based; details: Homo sapiens; HCT-15, single dose 10 μM; read-out: growth inhibition (GI%)
OVCAR-8 (ovarian cancer) = test: NCI-60 SRB cytotoxicity screen; type: cell-based; details: Homo sapiens; OVCAR-8, single dose 10 μM; read-out: growth inhibition (GI%)
[5] = system: MDA-MB-231/ATCC (breast cancer); test: NCI-60 SRB cytotoxicity screen; type: cell-based; details: Homo sapiens, MDA-MB-231, read-out: growth inhibition (GI%)
[6] = system: HOP-62 (non-small cell lung cancer); test: NCI-60 SRB cytotoxicity screen; type: cell-based; details: Homo sapiens; HOP-62, single dose 10 μM; read-out: growth inhibition (GI%)
A498 (renal cancer) = test: NCI-60 SRB cytotoxicity screen; type: cell-based; details: Homo sapiens; A498, single dose 10 μM; read-out: growth inhibition (GI%)
SK-OV-3 (ovarian cancer) = test: NCI-60 SRB cytotoxicity screen; type: cell-based; details: Homo sapiens; SK-OV-3, single dose 10 μM; read-out: growth inhibition (GI%)
BT-549 (breast cancer) = test: NCI-60 SRB cytotoxicity screen; type: cell-based; details: Homo sapiens; BT-549, single dose 10 μM; read-out: growth inhibition (GI%)
HS 578T (breast cancer) = test: NCI-60 SRB cytotoxicity screen; type: cell-based; details: Homo sapiens, single dose 10 μM, read-out: growth inhibition (GI%)
SNB-75 (CNS cancer) = test: NCI-60 SRB cytotoxicity screen; type: cell-based; details: Homo sapiens, SNB-75, SNB-75, single dose 10 μM; read-out: growth inhibition (GI%)
[7] = system: NCI-H460 (non-small cell lung cancer); test: NCI-60 SRB cytotoxicity screen; type: cell-based; details: Homo sapiens; NCI-H460, single dose 10 μM; read-out: growth inhibition (GI%)
786-0 (renal cancer) = test: NCI-60 SRB cytotoxicity screen; type: cell-based; details: Homo sapiens; 786-0, single dose 10 μM; read-out: growth inhibition (GI%)
IGROV1 (ovarian cancer) = test: NCI-60 SRB cytotoxicity screen; type: cell-based; details: Homo sapiens, IGROV-1; IGROV1, single dose 10 μM; read-out: growth inhibition (GI%)
[8] = system: NCI-H522 (non-small cell lung cancer); test: NCI-60 SRB cytotoxicity screen; type: cell-based; details: Homo sapiens; NCI-H522, single dose 10 μM; read-out: growth inhibition (GI%)
UACC-257 (melanoma) = test: NCI-60 SRB cytotoxicity screen; type: cell-based; details: Homo sapiens; UACC-257, single dose 10 μM; read-out: growth inhibition (GI%)
HL-60(TB) (leukemia) = test: NCI-60 SRB cytotoxicity screen; type: cell-based; details: Homo sapiens, single dose 10 μM, read-out: growth inhibition (GI%)
MCF7 (breast cancer) = test: NCI-60 SRB cytotoxicity screen; type: cell-based; details: Homo sapiens; MCF7, single dose 10 μM; read-out: growth inhibition (GI%)
ACHN (renal cancer) = test: NCI-60 SRB cytotoxicity screen; type: cell-based; details: Homo sapiens, single dose 10 μM, read-out: growth inhibition (GI%)
KM12 (colon cancer) = test: NCI-60 SRB cytotoxicity screen; type: cell-based; details: Homo sapiens; KM12, single dose 10 μM; read-out: growth inhibition (GI%)
[9] = system: NCI-H226 (non-small cell lung cancer); test: NCI-60 SRB cytotoxicity screen; type: cell-based; details: NCI-H226, single dose 10 μM; for inhibition at 10 µM: Homo sapiens, read-out: growth inhibition (GI%)
RPMI-8226 (leukemia) = test: NCI-60 SRB cytotoxicity screen; type: cell-based; details: Homo sapiens; RPMI-8226, single dose 10 μM; read-out: growth inhibition (GI%)

| Structure (SMILES) | inhibition at 10 µM (UACC-62 (melanoma)) | inhibition at 10 µM [1] | inhibition at 10 µM [2] | inhibition at 10 µM (PC-3 (prostate cancer)) | inhibition at 10 µM (SF-295 (CNS cancer)) | inhibition at 10 µM (K-562 (leukemia)) | inhibition at 10 µM (CCRF-CEM (leukemia)) | inhibition at 10 µM (UO-31 (renal cancer)) | inhibition at 10 µM (T-47D (breast cancer)) | inhibition at 10 µM [3] | inhibition at 10 µM (MALME-3M (melanoma)) | inhibition at 10 µM (MOLT-4 (leukemia)) | inhibition at 10 µM [4] | inhibition at 10 µM (SF-539 (CNS cancer)) | inhibition at 10 µM (HCT-15 (colon cancer)) | inhibition at 10 µM (OVCAR-8 (ovarian cancer)) | melting point | inhibition at 10 µM [5] | inhibition at 10 µM [6] | inhibition at 10 µM (SK-OV-3 (ovarian cancer)) | also measured |
| --- | --- | --- | --- | --- | --- | --- | --- | --- | --- | --- | --- | --- | --- | --- | --- | --- | --- | --- | --- | --- | --- |
| CCc1cccc2cc(C=CC(=O)c3ccc(OC)c(OC)c3)c(Cl)nc12 [Compound 3b, 3-(2-Chloro-8-ethylquinolin-3-yl)-1-(3,4-dimethoxyphenyl)prop-2-en-1-one] | 35.9% | 45.8% | 43.5% | 32% | 21.8% | 55.7% | 65% | 41.8% | 57.9% | < 10% | < 10% | 49.2% | 20.2% | 99.4% | 20.4% | 57.8% | 135 to 137 °C | 29.3% | < 10% | < 10% | inhibition at 10 µM (HT29 (colon cancer)): 26.9%; inhibition at 10 µM (SK-MEL-28 (melanoma)): < 10%; inhibition at 10 µM (A498 (renal cancer)): < 10%; inhibition at 10 µM (BT-549 (breast cancer)): 50.3%; inhibition at 10 µM (HS 578T (breast cancer)): < 10%; inhibition at 10 µM (SNB-75 (CNS cancer)): > 100%; inhibition at 10 µM [7]: 27.7%; inhibition at 10 µM (786-0 (renal cancer)): 25.7%; inhibition at 10 µM (IGROV1 (ovarian cancer)): < 10%; inhibition at 10 µM [8]: 41.5%; inhibition at 10 µM (UACC-257 (melanoma)): < 10%; inhibition at 10 µM (HL-60(TB) (leukemia)): 61%; inhibition at 10 µM (MCF7 (breast cancer)): 37.1%; inhibition at 10 µM (ACHN (renal cancer)): 24.5%; inhibition at 10 µM (KM12 (colon cancer)): 23.5%; inhibition at 10 µM [9]: > 100%; growth inhibition (GI%) [9]: lethal effect; inhibition at 10 µM (RPMI-8226 (leukemia)): 56.2% |
| CCc1cccc2cc(-c3cc(-c4ccc(F)cc4)[nH]c(=O)c3C#N)c(Cl)nc12 [Compound 4d, 4-(2-Chloro-8-ethylquinolin-3-yl)-6-(4-fluorophenyl)-2-oxo-1,2-dihydropyridine-3-carbonitrile] | 16.5% | < 10% | < 10% | < 10% | < 10% | 27.2% | < 10% | 27.9% | 14.4% | < 10% | < 10% | 15% | 12% | < 10% | 11.1% | < 10% | 260 to 262 °C | 19.9% | < 10% | < 10% | inhibition at 10 µM (SK-MEL-28 (melanoma)): < 10%; inhibition at 10 µM (A498 (renal cancer)): < 10%; inhibition at 10 µM (BT-549 (breast cancer)): 17.8%; inhibition at 10 µM (HS 578T (breast cancer)): < 10%; inhibition at 10 µM (SNB-75 (CNS cancer)): < 10%; inhibition at 10 µM [7]: < 10%; inhibition at 10 µM (786-0 (renal cancer)): < 10%; inhibition at 10 µM (IGROV1 (ovarian cancer)): < 10%; inhibition at 10 µM [8]: < 10%; inhibition at 10 µM (UACC-257 (melanoma)): < 10%; inhibition at 10 µM (HL-60(TB) (leukemia)): < 10%; inhibition at 10 µM (MCF7 (breast cancer)): 24.6%; inhibition at 10 µM (ACHN (renal cancer)): < 10%; inhibition at 10 µM (KM12 (colon cancer)): < 10%; inhibition at 10 µM [9]: 14.3%; inhibition at 10 µM (RPMI-8226 (leukemia)): 14% |
| CCc1cccc2cc(-c3cc(-c4ccc(OC)c(OC)c4)[nH]c(=S)c3C#N)c(Cl)nc12 [Compound 5b, 4-(2-Chloro-8-ethylquinolin-3-yl)-6-(3,4-dimethoxyphenyl)-2-thioxo-1,2-dihydropyridine-3-carbonitrile] | 19.1% | 24.9% | 19.7% | 21.3% | 16.5% | 28% | 28.8% | 23.3% | 41.1% | 23.9% | < 10% | 44.3% | 20.3% | 22% | 12.2% | 31.5% | 280 to 282 °C | 19.1% | < 10% | < 10% | inhibition at 10 µM (SK-MEL-28 (melanoma)): < 10%; inhibition at 10 µM (BT-549 (breast cancer)): 28.2%; inhibition at 10 µM (HS 578T (breast cancer)): 23.1%; inhibition at 10 µM (SNB-75 (CNS cancer)): 10.8%; inhibition at 10 µM [7]: < 10%; inhibition at 10 µM (786-0 (renal cancer)): 18.7%; inhibition at 10 µM (IGROV1 (ovarian cancer)): < 10%; inhibition at 10 µM [8]: < 10%; inhibition at 10 µM (UACC-257 (melanoma)): < 10%; inhibition at 10 µM (HL-60(TB) (leukemia)): < 10%; inhibition at 10 µM (MCF7 (breast cancer)): 26.6%; inhibition at 10 µM (ACHN (renal cancer)): 15.7%; inhibition at 10 µM (KM12 (colon cancer)): 19.9%; inhibition at 10 µM [9]: 20.3%; inhibition at 10 µM (RPMI-8226 (leukemia)): 29.2% |
| CCc1cccc2cc(C3C=C(c4cc(OC)c(OC)c(OC)c4)NC(=S)N3)c(Cl)nc12 (stereo not shown) [Compound 6c, 4-(2-Chloro-8-ethylquinolin-3-yl)-6-(3,4,5-trimethoxyphenyl)-3,4-dihydropyrimidine-2(1H)-thione] | 35.5% | 34% | 26.3% | 46.2% | 30% | 44.6% | 32.9% | 67.7% | 48.6% | 37.9% | < 10% | 67.7% | 25.8% | 30.3% | 30.9% | 12.2% | 235 to 237 °C | 46.1% | 10.5% | < 10% | inhibition at 10 µM (HT29 (colon cancer)): 36.4%; inhibition at 10 µM (A498 (renal cancer)): 11.6%; inhibition at 10 µM (BT-549 (breast cancer)): 10.5%; inhibition at 10 µM (HS 578T (breast cancer)): 39.6%; inhibition at 10 µM (SNB-75 (CNS cancer)): 23.2%; inhibition at 10 µM [7]: 30%; inhibition at 10 µM (786-0 (renal cancer)): 18.2%; inhibition at 10 µM (IGROV1 (ovarian cancer)): 14.3%; inhibition at 10 µM [8]: 50.3%; inhibition at 10 µM (UACC-257 (melanoma)): 13.1%; inhibition at 10 µM (HL-60(TB) (leukemia)): 41.5%; inhibition at 10 µM (MCF7 (breast cancer)): 44.3%; inhibition at 10 µM (ACHN (renal cancer)): 24.4%; inhibition at 10 µM (KM12 (colon cancer)): 28.1%; inhibition at 10 µM [9]: 58%; inhibition at 10 µM (RPMI-8226 (leukemia)): 57.6% |
